According to ChEMBL document CHEMBL1129125, “Tc-99m-labeled fibrinogen receptor antagonists: design and synthesis of cyclic RGD peptides for the detection of thrombi” (Bioorg Med Chem Lett, 1996):

Tests used:
Assay type in all cases: functional, organism-based
Conditions in all cases: Canis lupus familiaris; tested as the 125I-labelled form
[1] = species on record: Canis familiaris; assay: Compound was tested for uptake in thrombus in the canine arteriovenous shunt model in arterial rich condition.
[2] = species on record: Canis familiaris; assay: Compound was tested for uptake in thrombus in the canine arteriovenous shunt model in venous rich condition.
[3] = species on record: Canis familiaris; assay: Thrombus and blood ratio was determined in the canine arteriovenous shunt model in arterial rich condition.
[4] = species on record: Canis familiaris; assay: Thrombus and blood ratio was determined in the canine arteriovenous shunt model in venous rich condition.

Row | SMILES | ID/g [1] [%] | ID/g [2] [%] | Uptake ratio [3] | Uptake ratio [4]
1 | CN1C(=O)[C@@H](CCCCNC(=O)CCc2ccc(O)c(I)c2)NC(=O)c2cccc(c2)CNC(=O)[C@H](CC(=O)O)NC(=O)CNC(=O)[C@@H]1CCCN=C(N)N | 2.6 | 0.45 | 43.9 | 7.82
2 | CN1C(=O)[C@@H](Cc2ccc(O)c(I)c2)NC(=O)c2cccc(c2)CNC(=O)[C@H](CC(=O)O)NC(=O)CNC(=O)[C@@H]1CCCN=C(N)N | 1.81 | 0.25 | 173 | 19.3
